Laboratory results as given in US6651382B1, “Method for preventing the release of gramineous plant pollens” (National Agricultural Research Organization, priority 1999, dated 2003).

Test system: flowering barley line derived from a barley line "Satsuki-Nijo"
Experiment: Flowering inhibition test on harvested unflowered barley ears treated with reagent solution
Format: in vivo
Description: A flowering barley line derived from a barley line “Satsuki-Nijo” was conventionally cultivated in the fields. At the earing time, unflowered ears immediately after earing were harvested. Each group of three ears was then treated with 10 cc reagent solution containing 1-100 ppm methyl jasmonate as a jasmonic acid derivative in an artificial climate chamber under the following conditions: in the light having a brightness of 120 […] for 14 hours at 25° C.; and in the dark for 10 hours at 15° C.
Flowered ears were transferred to a culture medium for cuttings and cultivated for about 20 days. The number of anthers remaining in a glumaceous flower after self-pollination was measured and used as a control.

[1] = Table 2 (repeated test), reagent concentration 1 ppm
[2] = Table 2 (repeated test), reagent concentration 10 ppm
[3] = Table 2 (repeated test), reagent concentration 100 ppm

## CC/C=C\CC1C(=O)CCC1CC(=O)OC (stereo not drawn) [Methyl jasmonate, methyl jasmonate]
Table 1, reagent concentration 1 ppm, after self-pollination
  Number of remaining anthers per one glumaceous flower: 0.7
Table 1, reagent concentration 1 ppm, group of three ears, 10 cc solution
  Number of flowered ears on the 6th day: 3
Table 1, reagent concentration 10 ppm, after self-pollination
  Number of remaining anthers per one glumaceous flower: 1.7
Table 1, reagent concentration 10 ppm, after self-pollination, listed as methyl jasmonate
  Number of remaining anthers per one glumaceous flower: more anthers than non-treated ears
Table 1, reagent concentration 10 ppm, group of three ears, 10 cc solution
  Number of flowered ears on the 6th day: 3
Table 1, reagent concentration 100 ppm, after self-pollination
  Number of remaining anthers per one glumaceous flower: 2.1
Table 1, reagent concentration 100 ppm, after self-pollination, listed as methyl jasmonate
  Number of remaining anthers per one glumaceous flower: many more remaining anthers
Table 1, reagent concentration 100 ppm, group of three ears, 10 cc solution
  Number of flowered ears on the 6th day: 0
Table 1, reagent concentration 100 ppm, group of three ears, 10 cc solution, listed as methyl jasmonate
  Number of flowered ears on the 6th day: no flowering was observed
[1]
  Number of flowered ears on the 6th day: 3
  Number of remaining anthers per one glumaceous flower: 1.1
[2]
  Number of flowered ears on the 6th day: 3
  Number of remaining anthers per one glumaceous flower: 1.7
[3]
  Number of flowered ears on the 6th day: 0
  Number of remaining anthers per one glumaceous flower: 2.6
